Series [1] can be described thus: Phase I clinical trial, single administrations (SAD), plasma pharmacokinetics. Conditions: SAD cohorts, FIG. 3. Format: in vivo, humans. Here is the method:
In the context of a phase I clinical trial, the plasma concentrations of BIO101 were measured after single administrations (SAD) of 100, 350, 700 and 1400 mg/day in individuals on an empty stomach. Repeated administrations (MAD) over 14 days were then carried out with a single daily dose of 350 mg or with two daily doses (morning and evening) of 350 mg and 450 mg. These administrations of BIO101 to various cohorts of volunteers (n=6) allowed to determine the main pharmacokinetic parameters of BIO101: Cmax (maximum plasma concentration of BIO101 after single or repeated), Cmin (minimum plasma concentration of BIO101 after single or repeated administration), Tmax (time necessary to reach the maximum plasma concentration of BIO101 after single or repeated administration), and AUC (Area under curve) synonymous with level of plasma exposure.
The average profile of the cohorts of the SAD is presented in FIG. 3 in which Y are young volunteers and O are volunteers, the age of which is between 65 and 85 years. […] The half-life of the 20E is approximately 3-4 hours.

The conditions of series [2]: pure molecule, data of the literature; cited from earlier work.
In series [3] the test system is nuclear receptors of the androgens or of the oestrogens. The note with it: Lapenna et al., 2015; cited from earlier work.
Series [4] can be described thus: Bioavailability with respect to 20E. The note with it: relative to 20E.

In the case of `CC(C)(O)CC[C@@H](O)[C@](C)(O)[C@H]1CC[C@@]2(O)C3=CC(=O)[C@@H]4C[C@@H](O)[C@@H](O)C[C@]4(C)[C@H]3CC[C@]12C` [20E, 20-hydroxyecdysone], in series [1], the Bioavailability result is on record as “low bioavailability”, the “Elimination of the active ingredient from plasma” value is given as “almost totally disappears after 24 hours” and the Half-life was in the range of 3 to 4 h. Further, the Cytotoxicity result in series [2] is listed as “slightly cytotoxic”.
As to `CC12CC(O)C(O)CC1C(=O)C=C1C2CCC2(C)C(O)CCC12O` (centres unmarked) [dihydrorubrosterone, Dihydrorubrosterone], in series [3], the “Interaction with nuclear receptors of the androgens or of the oestrogens” value (from here on “Interaction with nuclear receptors”) is given as “capable of interacting”.
In the case of `CC(=O)[C@H]1CC[C@@]2(O)C3=CC(=O)[C@@H]4C[C@@H](O)[C@@H](O)C[C@]4(C)[C@H]3CC[C@]12C` [poststerone, Poststerone], in series [3], the “Interaction with nuclear receptors” value is “capable of interacting”. Besides, the “Bioavailability with respect to 20E” value in series [4] is “approximately twenty times better”.
Turning to `C[C@]12C[C@H](O)[C@H](O)C[C@H]1C(=O)C=C1[C@@H]2CC[C@]2(C)C(=O)CC[C@@]12O` [rubrosterone, Rubrosterone], in series [3], the “Interaction with nuclear receptors” value is given as “capable of interacting”.

These data come from patent US20200148718A1, “PHARMACEUTICAL-GRADE 20-HYDROXYECDYSONE EXTRACT, USE OF SAME AND PREPARATION THEREOF” (BIOPHYTIS, priority 2017, published 2020).
